In PubChem BioAssay (NCI) one finds TGI and GI50 data, which are given here for nine compounds.

SMILES strings stand for the structures. “And” between values parts separate entries of the source, which are not always exact repeats. Equal values may be shown once.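 Exposure lasted 48 hours, with cells grown in 96-well plates and compounds tested at five concentrations. GI50: concentration for 50% inhibition of growth. At the TGI there is no net growth.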

Some test systems named below: SK-MEL-28 melanoma; UACC-62 melanoma; OVCAR-3 ovarian; SF-539 CNS; OVCAR-8 ovarian; EKVX NSCLC; SF-268 CNS; MOLT-4 leukemia; SK-MEL-5 melanoma; RXF 393 renal.
Common to all, as to assay: DTP human tumour cell line panel, 48 h

For the compound `COc1c(C)c(O)c2c(c1C)OC(c1ccccc1)CC2=O` (stereo not drawn), the TGI in the assay on SK-MEL-28 melanoma, with UACC-62 melanoma, with OVCAR-3 ovarian, in the assay with SF-539 CNS, in the assay on OVCAR-8 ovarian and in the assay on EKVX NSCLC was above 100 µM throughout. Further, the TGI with SF-268 CNS and in the assay on MOLT-4 leukemia was above 100 µM each time.
For `CCN(CCO)CCCOc1ccc2c(Nc3cc(CC(=O)Nc4cccc(F)c4)[nH]n3)ncnc2c1`, the GI50 (commonly the concentration giving 50% growth inhibition) in the assay on SK-MEL-28 melanoma was 16.4 µM; in the assay with UACC-62 melanoma it was 26.1 µM; in the assay with OVCAR-3 ovarian, 10.9 µM; in the assay with OVCAR-8 ovarian, 23.8 µM; in the assay on EKVX NSCLC, 84.1 µM; in the assay with SK-MEL-5 melanoma it was 19.8 µM. Moreover, the GI50 is 9.62 µM in the assay on SF-268 CNS and 3.38 µM in the assay on MOLT-4 leukemia. The TGI (usually the concentration at which net growth stops) is 31.4 µM with SK-MEL-28 melanoma; above 59.3 µM in the assay on UACC-62 melanoma; 42.9 µM and > 4.07 µM in the assay on OVCAR-3 ovarian; 22.2 µM and > 2.7 µM with SF-539 CNS; above 100 µM in the assay on OVCAR-8 ovarian; above 100 µM in the assay with EKVX NSCLC. Besides, the TGI in the assay with SK-MEL-5 melanoma is 48.5 µM and > 3.51 µM; in the assay on SF-268 CNS, 32.2 µM and > 10 µM; with MOLT-4 leukemia it was above 88.4 µM.
As for `Cc1[nH]n(-c2cccc(Cl)c2)c(=O)c1/C=C1\C=c2ccccc2=CC1=O`, the GI50 was 39.8 µM in the assay on UACC-62 melanoma; 59.5 µM with OVCAR-3 ovarian; above 100 µM in the assay on OVCAR-8 ovarian; above 100 µM in the assay with EKVX NSCLC; above 100 µM in the assay on SK-MEL-5 melanoma; 97.1 µM with SF-268 CNS. In addition, the GI50 in the assay on MOLT-4 leukemia is above 100 µM. Moreover, the TGI in the assay with UACC-62 melanoma, with OVCAR-3 ovarian, in the assay with SF-539 CNS, with OVCAR-8 ovarian, in the assay on EKVX NSCLC and in the assay on SK-MEL-5 melanoma was above 100 µM each time. The TGI in the assay with SF-268 CNS and in the assay on MOLT-4 leukemia was above 100 µM in each case.
With `C#Cc1ccc(-n2c(/C=C/c3ccc4ccccc4c3)nc3ncccc3c2=O)cc1`, the GI50 in the assay with SK-MEL-28 melanoma is 4.33 µM; in the assay on UACC-62 melanoma, 2.49 µM; in the assay with SF-539 CNS it was 2.91 µM; with OVCAR-8 ovarian it was 3.05 µM; in the assay with SK-MEL-5 melanoma, 1.16 µM; in the assay on SF-268 CNS, 2.6 µM. The GI50 was 2 µM in the assay on MOLT-4 leukemia and 1.79 µM in the assay on RXF 393 renal. Further, the TGI in the assay with SK-MEL-28 melanoma is above 100 µM; with UACC-62 melanoma it was above 100 µM; with SF-539 CNS, above 100 µM; in the assay with OVCAR-8 ovarian, above 100 µM; in the assay on SK-MEL-5 melanoma, 2.52 µM; in the assay with SF-268 CNS, above 100 µM. Also, the TGI in the assay with MOLT-4 leukemia is above 100 µM; with RXF 393 renal, 5.47 µM.
In the case of `COC(=O)/C(=N/NC(C)(C)C)C(C(=O)OC)C(=O)C(=O)Nc1nc2ccc([N+](=O)[O-])cc2s1` (stereo not drawn), the TGI in the assay on SK-MEL-28 melanoma, in the assay on UACC-62 melanoma, in the assay on OVCAR-3 ovarian, in the assay on SF-539 CNS, in the assay with OVCAR-8 ovarian and in the assay on EKVX NSCLC was above 100 µM each time. Further, the TGI in the assay on SK-MEL-5 melanoma, with SF-268 CNS and in the assay on MOLT-4 leukemia was above 100 µM each time.
`COc1cc(NC(C)CCCN2C(=O)c3ccccc3C2=O)c2ncccc2c1OC` (stereo not drawn): the GI50 in the assay on SK-MEL-28 melanoma was 37.8 µM; in the assay on UACC-62 melanoma it was 35.9 µM; with OVCAR-3 ovarian, 25.8 µM; in the assay on SF-539 CNS, 78 µM; in the assay on OVCAR-8 ovarian, 34.9 µM; in the assay with EKVX NSCLC it was 29.7 µM. The GI50 is 16.5 µM with SK-MEL-5 melanoma, 55.7 µM in the assay with SF-268 CNS and 38.3 µM in the assay on MOLT-4 leukemia. The TGI in the assay with SK-MEL-28 melanoma, with UACC-62 melanoma, with OVCAR-3 ovarian, with SF-539 CNS, in the assay on OVCAR-8 ovarian and in the assay with EKVX NSCLC was above 100 µM in each case. The TGI was 30.1 µM in the assay on SK-MEL-5 melanoma, above 100 µM in the assay on SF-268 CNS and above 100 µM in the assay on MOLT-4 leukemia.
Consider `O=C1NC(=N[C@H](CO)c2ccccc2)S/C1=C\c1ccc2ncccc2c1`, for which the GI50 was 7.96 µM with SK-MEL-28 melanoma; 5.74 µM in the assay on UACC-62 melanoma; 4.13 µM with OVCAR-3 ovarian; 2.66 µM in the assay on SF-539 CNS; 5.27 µM with OVCAR-8 ovarian; 4.89 µM in the assay with SK-MEL-5 melanoma. For the same compound, the GI50 with SF-268 CNS was 3.82 µM; in the assay on MOLT-4 leukemia, 4.47 µM; in the assay with RXF 393 renal, 4.04 µM. The TGI was above 25 µM in the assay with SK-MEL-28 melanoma; 24.7 µM in the assay with UACC-62 melanoma; 13.7 µM in the assay on OVCAR-3 ovarian; 7.67 µM with SF-539 CNS; above 25 µM with OVCAR-8 ovarian; 10.6 µM in the assay with SK-MEL-5 melanoma. For the same compound, the TGI with SF-268 CNS was above 25 µM; in the assay on MOLT-4 leukemia it was 14.8 µM; with RXF 393 renal, 18.1 µM.
On to `O=C1NC(=O)C(c2c[nH]c3ccccc23)=C1c1ccccc1`, for which the GI50 in the assay on SK-MEL-28 melanoma, in the assay with UACC-62 melanoma, with OVCAR-3 ovarian, in the assay on SF-539 CNS, with OVCAR-8 ovarian and in the assay with SK-MEL-5 melanoma was above 25 µM throughout. Further, the GI50 in the assay on SF-268 CNS, in the assay with MOLT-4 leukemia and in the assay with RXF 393 renal was above 25 µM each time. Further, the TGI in the assay with SK-MEL-28 melanoma, in the assay with UACC-62 melanoma, in the assay on OVCAR-3 ovarian, with SF-539 CNS, with OVCAR-8 ovarian and in the assay on SK-MEL-5 melanoma was above 25 µM throughout. For the same compound, the TGI in the assay on SF-268 CNS, in the assay on MOLT-4 leukemia and in the assay with RXF 393 renal was above 25 µM throughout.
With `NCC1(N2CCOCC2)C2CCCC21CNc1ccccc1` (stereo not drawn), the TGI in the assay with SK-MEL-28 melanoma, with UACC-62 melanoma, in the assay on OVCAR-3 ovarian, in the assay with SF-539 CNS, in the assay with OVCAR-8 ovarian and in the assay with SK-MEL-5 melanoma was above 100 µM throughout. Also, the TGI with SF-268 CNS, in the assay on MOLT-4 leukemia and with RXF 393 renal was above 100 µM throughout.
